# Test results: patent US11407765B2, “Tetracyclic heteroaryl compounds” (AstraZeneca AB, priority 2018, dated 2022)
# Like-named read-outs stand apart in the source and are kept apart here.
# Tests used:
# KRasG12C [1] = biological target: T1, KRasG12C (Homo sapiens, UniProt P01116, G12C); test: KRasG12C functional assay (HTRF, SOS-mediated nucleotide exchange / Raf RBD binding); type: biochemical; conditions: 4 hrs incubation with GDP loaded biotinylated KRasG12C, single experiment or average of two or more
# T1 construct: biotin (biotinylated); made in house
# Protocol: KRasG12C Functional Assay
# All enzyme and substrate solutions were prepared in assay buffer containing 20 mM HEPES (pH 7.5), 5 mM MgCl2, 150 mM NaCl, and 0.01% Tween 20. […] In a separate mix 20 nM GST-Raf Ras binding domain (GST-Raf RBD, purified in house) and 4 μg/ml anti-GST XL665 antibody (Cisbio) was prepared in assay buffer containing 50 mM Potassium Fluoride and 0.05 mg/ml BSA and equilibrated for 4 hours before adding 0.6 μM Guanosine 5′-[γ-thio]triphosphate (GTPγS, Sigma) and 0.08 μM SOS (purified in house). 5 μl of the GST-RAF RBD mix was then dispensed into each well of the assay plate. […] This is detected simultaneously via the specific binding interaction between active GTPγS KRas^G12C with GST-Raf RBD which brings the europium and XL665 into close proximity enabling an increased FRET signal to be detected on a Pherastar (BMG) plate reader equipped with the HTRF filter module. […] IC50 values were calculated from normalised dose-response response FRET data curve fitted in Genedata screener (Basel, Switzerland).
# KRasG12C [2] = biological target: T1, KRasG12C; test: KRasG12C mass spectrometry adducting assay; type: binding; conditions: 10 μM test compound, 4 μM GDP loaded KRasG12C, 4 hours
# Protocol: KRasG12C Mass Spectrometry Adducting Assay
# Enzyme solutions were prepared in assay buffer containing 20 mM HEPES (pH 7.5), 5 mM MgCl2, and 150 mM NaCl. […] The plate was sealed before reading on a Xevo G2 QTOF (Waters) and Acquity LC system (Waters). 10 μl of sample was injected onto a Xbridge BEH300; C4; 3.5 um; 2.1×50 mm column (Waters) running a 3 minute gradient. Blank samples were run in between each test sample.
# Data was analysed in Mass Lynx software (Waters), the Total ion count (TIC) trace was used and the eluted protein peak data combined. Using the combined spectrum the data was deconvoluted using MaxEnt1 method. The peak area for apo-protein KRas^G12C (APO) and KRAS+relative cmpd mass (adduct) were measured, and a percentage adduct was calculated using the following calculation: Percent adduct=100*(area of adduct peak/(sum of APO+adduct peaks)
# Half life in rat blood = type: in vitro ADME
# [3] = Caco AB cell permeability; type: in vitro ADME; conditions: human, Caco-2; A to B
# [4] = In vivo pharmacokinetics in rat (oral bioavailability, clearance)
# [5] = read-out: KRasG12C functional assay IC50 value
# [6] = KRasG12C functional assay IC50 value
# T1 sequence (P01116 1-188 isoform P01116-2 G12C): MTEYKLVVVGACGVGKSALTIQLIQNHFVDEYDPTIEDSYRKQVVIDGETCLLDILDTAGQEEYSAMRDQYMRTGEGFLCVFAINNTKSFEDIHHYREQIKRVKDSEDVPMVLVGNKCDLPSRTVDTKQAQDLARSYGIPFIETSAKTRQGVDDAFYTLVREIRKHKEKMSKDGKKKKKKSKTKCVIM
IC50 (KRasG12C [1]; [5]) [nM],KRasG12C M. S. Binding Mean adduct % (KRasG12C [2]) [%],Structure (SMILES),further results
239,25,"C=CC(=O)N1CCN2c3ncnc4c(F)c(-c5c(C)ccc6[nH]nnc56)c(Cl)c(c34)OC[C@@H]2C1 (single isomer, unassigned) [Example 18]",
51,100,"C=CC(=O)N1CCN2c3ncnc4c(F)c(-c5c(F)ccc6[nH]nnc56)c(Cl)c(c34)OC[C@@H]2C1 (single isomer, unassigned) [Example 26]",
5,92,"C=CC(=O)N1CCN2c3ncnc4c(F)c(-c5c(F)ccc6cc[nH]c(=O)c56)c(Cl)c(c34)OC[C@@H]2C1 (single isomer, unassigned) [Example 28]",
30,95,"C=CC(=O)N1CCN2c3ncnc4c(F)c(-c5c(F)ccc6[nH]ncc56)c(Cl)c(c34)OC[C@@H]2C1 (single isomer, unassigned) [Example 22]",
31,95,"C=CC(=O)N1CCN2c3ncnc4c(F)c(-c5c(C)cccc5O)c(Cl)c(c34)OC[C@@H]2C1 (single isomer, unassigned) [Example 12]",
29,100,"C=CC(=O)N1CCN2c3ncnc4c(F)c(-c5c(F)ccc6[nH]cnc56)c(Cl)c(c34)OC[C@@H]2C1 (single isomer, unassigned) [Example 20]",
59,94,"CN(C)C/C=C/C(=O)N1CCN2c3ncnc4c(F)c(-c5c(O)cccc5F)c(Cl)c(c34)OC[C@@H]2C1 (single isomer, unassigned) [Example 14]",
10,91,"C=CC(=O)N1CCN2c3ncnc4c(F)c(-c5c(C)ccc6cc[nH]c(=O)c56)c(Cl)c(c34)OC[C@@H]2C1 (single isomer, unassigned) [Example 16]",

# Second part, the compound before the results:
Structure (SMILES),IC50 (KRasG12C [1]; [5]) [nM],KRasG12C M. S. Binding Mean adduct % (KRasG12C [2]) [%],further results
"C=CC(=O)N1CCN2c3ncnc4c(F)c(-c5c(C)ccc6[nH]cnc56)c(Cl)c(c34)OC[C@@H]2C1 (single isomer, unassigned) [Example 8]",12,96,
"C=CC(=O)N1CCN2c3ncnc4c(F)c(-c5cccc6cc[nH]c(=O)c56)c(Cl)c(c34)OC[C@@H]2C1 [Example 10, 8-[(8aS)-6-Chloro-4-fluoro-10-(prop-2-enoyl)-8,8a,9,10,11,12-hexahydropyrazino[2′,1′:3,4][1,4]oxazepino[5,6,7-de]quinazolin-5-yl]isoquinolin-1(2H)-one]",68,94,
"C=CC(=O)N1CCN2c3ncnc4c(F)c(-c5n[nH]c6ccccc56)c(Cl)c(c34)OC[C@@H]2C1 [Example 11, 1-[(8aS)-6-Chloro-4-fluoro-5-(1H-indazol-3-yl)-8a,9,11,12-tetrahydropyrazino[2′,1′:3,4][1,4]oxazepino[5,6,7-de]quinazolin-10(8H)-yl]prop-2-en-1-one]",201,96,
"C=CC(=O)N1C[C@@H]2CCOc3c(Cl)c(-c4c(O)cccc4F)c(F)c4ncnc(c34)N2C[C@@H]1C (single isomer, unassigned) [Example 42]",,95.528,IC50 (KRasG12C [1]; [6]): 111 nM
"C=CC(=O)N1CCN2c3ncnc4c(F)c(-c5c(O)cccc5F)c(Cl)c(c34)OC[C@@H]2C1 [R^5 desmethyl compound, 1-((8aS)-6-chloro-4-fluoro-5-(2-fluoro-6-hydroxyphenyl)-8a,9,11,12-tetrahydropyrazino[2′,1′:3,4] [1,4]oxazepino[5,6,7-de]quinazolin-10(8H)-yl)prop-2-en-1-one, reference compound]",,,"half-life (Half life in rat blood): 12 min; Papp A→B [3]: 5.8 ×10⁻⁶ cm/s; clearance ([4]; in vivo): 962 mL/min/kg; bioavailability ([4]; in vivo, po): 0%"
"C=CC(=O)N1C[C@H]2COc3c(Cl)c(-c4c(O)cccc4F)c(F)c4ncnc(c34)N2C[C@H]1C (single isomer, unassigned) [Example 4]",50,96,Papp A→B [3]: 58 ×10⁻⁶ cm/s; oral bioavailability [4]: 31%; clearance ([4]; in vivo): 29 mL/min/kg
"C=CC(=O)N1C[C@H]2COc3c(Cl)c(-c4c(O)cccc4F)c(F)c4ncnc(c34)N2C[C@@H]1C [Example 3, 1-[(8aS,11S)-6-Chloro-4-fluoro-5-(2-fluoro-6-hydroxyphenyl)-11-methyl-8a,9,11,12-tetrahydropyrazino[2′,1′:3,4][1,4]oxazepino[5,6,7-de]quinazolin-10(8H)-yl]prop-2-en-1-one]",113,54,
"C=CC(=O)N1CCN2c3ncnc4c(F)c(-c5c(C)ccc6c5C(=O)NC6)c(Cl)c(c34)OC[C@@H]2C1 (single isomer, unassigned) [Example 1]",19,98,
"C=CC(=O)N1C[C@@H]2CCOc3c(Cl)c(-c4c(O)cccc4F)c(F)c4ncnc(c34)N2C[C@H]1C (single isomer, unassigned) [Example 39]",,,IC50 (KRasG12C [1]; [6]): 3 nM; Papp A→B [3]: 72 ×10⁻⁶ cm/s; clearance (Cl) [4]: 22 mL/min/kg; oral bioavailability [4]: 75%
"C=CC(=O)N1CCN2c3ncnc4c(F)c(-c5c(C)ccc6c5C(=O)NC6)c(Cl)c(c34)OC[C@@H]2C1 (single isomer, unassigned) [Example 2]",290,25,
"C=CC(=O)N1C[C@H]2COc3c(Cl)c(-c4c(O)cccc4F)c(F)c4ncnc(c34)N2C[C@H]1C (single isomer, unassigned) [Example 5]",6350,14,
"C=CC(=O)N1CCN2c3ncnc4c(F)c(-c5c(C)ccc6[nH]cnc56)c(Cl)c(c34)OC[C@@H]2C1 (single isomer, unassigned) [Example 9]",230,22,
